Like-named read-outs stand apart in the source and are kept apart here.
Experiments:
[1] = Rat intraduodenal capsule model, Cmax with different enhancers (Example 6); details: ID in rats, Cmax normalized to 40 mg/Kg
Procedure: Male Sprague Dawley rats weighing approximately 250 g with free access to water were fasted overnight. These rats were anesthetized with 40 mg/kg pentobarbital via jugular vein catheter. The small intestine was exposed by a ventral midline incision. A small incision was made into the duodenum and a #9el capsule was inserted into the lumen of the small intestine. The duodenum and the midline incisions were sutured closed. The rats regained consciousness in 30-90 minutes. Blood samples were taken from the jugular vein catheter at 0, 15, 30 and 60 minutes and 2, 3, 4 and 6 hours. Food was returned at 1 hour post surgery. Blood samples were collected in heparinized tubes and subsequently centrifuged. The plasma was stored at −20 C in heparinized tubes. […] After the 6 hr blood sample, the rat was euthanized and a necropsy was performed to determine accuracy and integrity of the surgery. The duodenum was examined for blockage, leakage and any evidence of inflammation or irritation at the site of the capsule implantation.
In each instance, the compositions were administered ID in 3 rats, unless otherwise indicated.

[2] = Rat intraduodenal capsule model, % bioavailability; details: for Drug plus enhancer % BA: 4:1 (enhancer:drug), ceftriaxone/carrageenan complex+Laureth-12, daptomycin carrageenan complex+Ceteth-15, CMPD 1+Ceteth-15, cidofovir, meropenem, caspofungin+Ceteth-12; for bioavailability: male, Sprague Dawley, rat, plasma
Procedure: (§1) Male Sprague Dawley rats weighing approximately 250 g with free access to water were fasted overnight. These rats were anesthetized with 40 mg/kg pentobarbital via jugular vein catheter. The small intestine was exposed by a ventral midline incision. A small incision was made into the duodenum and a #9el capsule was inserted into the lumen of the small intestine. The duodenum and the midline incisions were sutured closed. The rats regained consciousness in 30-90 minutes. Blood samples were taken from the jugular vein catheter at 0, 15, 30 and 60 minutes and 2, 3, 4 and 6 hours. Food was returned at 1 hour post surgery. Blood samples were collected in heparinized tubes and subsequently centrifuged. The plasma was stored at −20 C in heparinized tubes. The rats regained consciousness in 30-90 minutes. After the 6 hr blood sample, the rat was euthanized and a necropsy was performed to determine accuracy and integrity of the surgery. The duodenum was examined for blockage, leakage and any evidence of inflammation or irritation at the site of the capsule implantation.

[3] = rat, in vivo; cited from earlier work
[4] = rat, in vivo
Procedure: as §1

[5] = without any absorption enhancer; cited from earlier work

| Compound | Drug plus enhancer % BA ([2]; ID, rats) | bioavailability [2] [%] | % bioavailability [4] | also measured |
| --- | --- | --- | --- | --- |
| CN(/N=C/C1=C(C(=O)O)N2C(=O)C(NC(=O)/C(=N\OCF)c3nsc(N)n3)[C@H]2SC1)C(=N)N1CCNCC1 (stereo partly shown) [CMPD 1, 7-(((5-amino-1,2,4-thiadiazol-3-yl)-(Z)-(fluoromethoxyimino)acetyl)amino)-3(E)-((imino-1-piperazinylmethyl)-methylhydrazono)methyl-3-cephem-4-carboxylic acid] | 30% |  |  | Cmax Mean (±SD) ([1]; enhancer Capmul C10, enhancer:drug 4:1): 7 (7) μg/mL; Cmax Mean (±SD) ([1]; enhancer Gelmul 90, enhancer:drug 4:1): 13 (8) μg/mL; Cmax Mean (±SD) ([1]; enhancer Laureth-12, enhancer:drug 4:1): 22 (4) μg/mL; Cmax Mean (±SD) ([1]; enhancer Sodium Laurate, enhancer:drug 4:1): 7 (1) μg/mL |
| CCCCCCCCCC(=O)N[C@@H](Cc1c[nH]c2ccccc12)C(=O)N[C@H](CC(N)=O)C(=O)N[C@@H](CC(=O)O)C(=O)N[C@@H]1C(=O)NCC(=O)N[C@@H](CCCN)C(=O)N[C@@H](CC(=O)O)C(=O)N[C@H](C)C(=O)N[C@@H](CC(=O)O)C(=O)NCC(=O)N[C@H](CO)C(=O)N[C@@H]([C@H](C)CC(=O)O)C(=O)N[C@@H](CC(=O)c2ccccc2N)C(=O)O[C@@H]1C [Daptomycin, daptomycin, reference compound] |  |  |  | oral bioavailability of drug only (footnote) [3]: poor oral bioavailability; Drug plus enhancer % BA [4]: 44^2% |
| Nc1ccn(C[C@@H](CO)OCP(=O)(O)O)c(=O)n1 [Cidofovir, cidofovir] | 44% | 2 |  |  |
| C[C@@H](O)[C@H]1C(=O)N2C(C(=O)O)=C(S[C@@H]3CN[C@H](C(=O)N(C)C)C3)[C@H](C)[C@H]12 [Meropenem, meropenem] | 28% | 1 |  |  |
| CO/N=C(\C(=O)N[C@@H]1C(=O)N2C(C(=O)O)=C(CSc3nc(=O)c(=O)[nH]n3C)CS[C@H]12)c1csc(N)n1 [Ceftriaxone, ceftriaxone] | 83^2% |  |  | Drug only % BA ([2]; without POE alkyl ether enhancer, ID, rats): 2%; oral bioavailability [5]: 0-5% |
| CC[C@H](C)C[C@H](C)CCCCCCCCC(=O)N[C@H]1C[C@@H](O)[C@@H](NCCN)NC(=O)[C@@H]2[C@@H](O)CCN2C(=O)[C@H]([C@H](O)CCN)NC(=O)[C@H]([C@H](O)[C@@H](O)c2ccc(O)cc2)NC(=O)[C@@H]2C[C@@H](O)CN2C(=O)[C@H]([C@@H](C)O)NC1=O [Caspofungin, caspofungin] | <5% | < 1 |  |  |
| Laureth-9 |  |  | 60 (19) % |  |
| Beheneth-20 |  |  | 7 (5) % |  |
| Laureth-23 |  |  | 10 (4) % |  |

Reference: patent US20150165029A1, “THERAPEUTIC COMPOSITIONS” (CUBIST PHARMACEUTICALS, INC., priority 2005, published 2015)
